{"source": "patent US20140357563A1", "about": "“Compositions and Methods for the Generation of Activated Protein C and Methods of Use Thereof” (The Children's Hospital of Philadelphia, priority 2011, published 2014)", "key": {"[1]": {"system": "thrombin (IIa)/thrombomodulin (TM) complex", "experiment": "In vitro aPC assay in solution, on human TM expressing HEK293 and on primary endothelial cells", "type": "cell-based", "protocol": "(§1) Generation of aPC was assayed in 96-well plates as described previously (Slungaard et al. (1994) J. Biol. Chem., 269:25549-25556; Slungaard et al. (1993) J. Clin. Invest., 91:1721-1730). Briefly, thrombomodulin (TM) was mixed with various amounts of PF4 and/or heparin for 10 minutes in assay buffer (final concentration, 20 mM Tris, 100 mM NaCl, 1 mM CaCl2, 0.1% BSA, pH 7.5). Protein C (PC) was added for an additional 10 minutes followed by addition of thrombin (IIa) at a final concentration of either 0.2 or 2 nM and 15 minutes of incubation. All incubations were done at 37° C. Final concentrations of TM and PC were 0.5 nM and 500 nM, respectively.\nTo measure aPC formation, HEK-K293 cells stably expressing human TM on their surface cells were allowed to adhere overnight onto 24-well plates (5×10^5 cells/well) in DMEM/F12 media containing 10% FBS (Feistritzer et al. (2006) J. Biol. Chem., 281:20077-20084). Cells were washed twice with DMEM/F12 media followed by Dulbecco PBS. Various concentrations of PF4 or protamine sulfate (PRT) were incubated with cells for 10 minutes at 37° C. followed by the addition of PC and IIa, as described above. After incubation for 45 minutes, aliquots of the reaction mixture were transferred to 96-well plates and quenched by the addition of 1 mM EDTA and 100 nM hirudin. Generation of aPC was measured after the addition of 0.5 mM […] and determination of the initial rate of chromogenic substrate cleavage from absorbance measurements at 405 nm on a Thermomax™ Microtiter Vmax® plate reader (Molecular Devices)."}, "plasma aPC": {"system": "plasma aPC", "experiment": "In vivo aPC generation measured in mouse plasma", "settings": "for effect of heparinoid on aPC generation after histones: histones 50 mg/kg", "protocol": "Generation of aPC in vivo was assayed in plasma of mice as described (Kowalska et al. (2007) Blood 110:1903-1905). Mice were injected into the jugular vein. After 10 minutes, blood was drawn into sodium citrate/benzamidine (final concentration, 5 mM/50 mM, respectively), centrifuged for 10 minutes at 4500 g at 4° C., and plasma was frozen. Plasma aPC levels were subsequently measured by capture ELISA using antimouse aPC antibody and chromogenic substrate Spectrozyme® PCa (American Diagnostica) (Li et al. (2005) J. Thromb. Haemost., 3:1351-1359).\nIn vivo aPC generation was assayed in plasma of mice generally as described above. […] After 10 minutes, blood was drawn into sodium citrate/benzamidine (final concentration 5 mM/50 mM, respectively), centrifuged for 10 minutes at 5,000 rpm at 4° C. and plasma frozen. […] Some animals were pre-injected with UFH or ODSH 10 minutes before injection of histones. Plasma aPC levels were measured by capture ELISA (Li et al. (2005) J. Thromb. Haemost., 3:1351-1359) using an anti-mouse aPC antibody and chromogenic substrate Spectrozyme® PCa (American Diagnostica; Stamford, Conn.)."}, "[2]": {"system": "thrombin (IIa)/thrombomodulin (TM) complex, TM+CS", "experiment": "In vitro aPC generation assay in solution, IIa/TM complex with TM containing chondroitin sulfate side chains (TM+CS, TMCS)", "type": "biochemical, rabbit or human", "settings": "for effect of heparinoid on aPC generation with high doses of PF4 and histones: conditions simulating late sepsis; for effect of heparinoid on aPC generation at low levels of histones: histones 0-10 μg/ml, heparinoid 2, 5 or 10 μg/ml; for effect of heparinoid on aPC generation at low levels of histones / effect of heparinoid on aPC generation at higher levels of histones: FIG. 7; for effect of heparinoid on aPC generation at higher levels of histones: histones >10 μg/ml; for increase of aPC generation by PF4 in absence of histones: TMCS 0.5 nM, FIG. 6A", "protocol": "as §1\nGeneration of aPC was assayed in 96-well plates generally as described above. Briefly, rabbit or human sTMCS or sTM−CS, was mixed with various amounts of histones, PF4 and/or heparinoid for 10 minutes in assay buffer (final concentration, 20 mM Tris, 100 mM NaCl, 1 mM CaCl2, 0.1% BSA, pH 7.5). Final concentrations of TMs were 0.5-40 nM. PC (final concentration, 500 nM) was added for an additional 10 minutes followed by addition of IIa at a final concentration of 0.2 or 2 nM and then incubated for 15 minutes. All incubations were done at 37° C. The reaction was quenched with 1 mM EDTA and 100 nM hirudin. Concentrations of aPC formed in the quenched samples were inferred from initial rate measurements after the addition of 0.5 mM S2366. Initial rates of chromogenic substrate cleavage were determined by measuring absorbance at 405 nm using a ThermoMax™ Microtiter Vmax® plate reader (Molecular Devices; Sunnyvale, Calif.)."}, "[3]": {"experiment": "aPTT in mouse plasma after injection of heparinoids with or without histones", "type": "in vivo", "settings": "for severe prolongation of aPTT in presence of high (sub-lethal and lethal) concentrations of histones: heparinoid 50 mg/kg 10 minutes before histones, WT mice, FIG. 9B", "protocol": "Blood was collected from cut tails 20 minutes after injection of heparinoids and aPTT measured in plasma. FIG. 9A: WT mice were injected with control buffer (at 0 mg/kg heparanoid concentrations) or UFH (dark squares) or ODSH (open triangles) at the concentrations indicated. FIG. 9B: WT mice were injected with control buffer (open circles) or 50 mg/kg of either UFH (black square) or ODSH (gray triangles) 10 minutes before injection of increasing concentrations of histones. N=5 mice per data point. Mean±1 SD are shown."}, "mice": {"system": "mice", "experiment": "Histone-induced lethality in mice", "type": "in vivo, mouse", "settings": "heparinoid 50 mg/kg, histones 75 mg/kg, WT mice"}, "antithrombin": {"system": "antithrombin", "settings": "Fryer et al. (1997); cited from earlier work"}, "[4]": {"settings": "WT mice, heparinoid 50 mg/kg, FIG. 8"}}, "note": "Entries after “also recorded” stand apart in the source; their conditions may differ.", "data": [{"substance": "heparin", "values": [{"measurement": "effect of heparin on aPC generation at low concentrations of PF4", "setting": "[1]; PF4 12.5 μg/ml, FIG. 1B", "result": "decreases aPC generation"}, {"measurement": "effect of heparin on aPC generation at an excess of PF4", "setting": "[1]; PF4 400 μg/ml, FIG. 1B", "result": "shifts the curve back to the optimal PF4 concentration"}, {"measurement": "effect of heparin on aPC generation at lower than optimal protamine sulfate concentration", "setting": "[1]; PRT 1 μg/ml, FIG. 1D", "result": "only decreases aPC generation"}, {"measurement": "effect of heparin on aPC generation at higher concentrations of PRT", "setting": "[1]; PRT 20 μg/ml, FIG. 1D", "result": "a peak and then a decrease in aPC"}, {"measurement": "effect of added heparin on histone curve for aPC generation", "setting": "[1]; absence or presence of PF4", "result": "shifted the curve for aPC generation to the right"}, {"measurement": "effect of heparinoid on aPC generation after histones", "setting": "plasma aPC; [4]", "result": "suppressed detectable aPC generation"}, {"measurement": "effect of heparin in absence of the GLA-domain of Protein C", "setting": "[2]; Gla-domainless Protein C, TM+CS, FIG. 3E", "result": "did not have any effect"}, {"measurement": "effect of heparin on histones/PF4 mediated aPC generation", "setting": "[2]; TM+CS, PF4 50 μg/ml, histones 75 μg/ml, FIGS. 3B and 3C", "result": "first enhances aPC generation before a decrease in aPC generation"}, {"measurement": "effect of UFH on peak aPC generation from histone plus PF4", "setting": "[2]; UFH 5 μg/ml, PF4 50 μg/ml, FIG. 6C", "result": "shifted to the right"}, {"measurement": "effect of heparinoid on aPC generation with high doses of PF4 and histones", "setting": "[2]", "result": "enhanced aPC generation"}, {"measurement": "effect of heparinoid on aPC generation at low levels of histones", "setting": "[2]", "result": "inhibited aPC generation"}, {"measurement": "effect of heparin on aPC generation at below peak concentration of histones", "setting": "[2]; histones 3 μg/ml, TM+CS, FIG. 2F", "result": "only decreased aPC generation"}, {"measurement": "effect of heparinoid on aPC generation at higher levels of histones", "setting": "[2]", "result": "restored high levels of aPC generation"}, {"measurement": "heparin concentration of optimal effect on aPC generation", "setting": "[2]; histones present in excess (75 μg/ml), TM+CS, FIGS. 2E and 2F", "result": 5, "unit": "μg per ml"}, {"measurement": "effect on aPTT in mice not exposed to histones", "setting": "[3]; concentrations 10 and 100-times lower than needed to reverse histone lethality, FIG. 9A", "result": "marked prolongation of aPTT"}, {"measurement": "severe prolongation of aPTT in presence of high (sub-lethal and lethal) concentrations of histones", "setting": "[3]", "result": "not by the UFH"}, {"measurement": "effect of heparinoid on histone lethality", "setting": "mice", "result": "prevent these deaths"}]}, {"substance": "platelet factor 4 [PF4]", "values": [{"measurement": "PF4 concentration at peak of bell-shape curve of aPC generation", "setting": "[1]; FIG. 1A", "result": "around 50 μg/ml"}, {"measurement": "maximal increase of aPC generation", "setting": "[1]; at peak of biphasic curve", "result": "~6", "unit": "times"}, {"measurement": "PF4 concentration at peak of biphasic curve of aPC generation", "setting": "[1]; in solution, human TM expressing HEK293, primary endothelial cells", "result": "around 25 μg/ml"}, {"measurement": "effect of concurrently injected PF4 on plasma aPC", "setting": "plasma aPC; PF4 knockout mice, PF4 5 mg/kg with IIa and histones, FIG. 4, 5 mg/kg", "result": "further increases the generation of aPC in plasma; also recorded: higher aPC levels"}, {"measurement": "potency on aPC activity compared with histones", "setting": "[2]; FIGS. 2C and 2D", "result": "more potent than histones"}, {"measurement": "increase of aPC generation by PF4 in absence of histones", "setting": "[2]; PF4 3 μg/ml", "result": "> 3", "unit": "fold"}, {"measurement": "increase of aPC generation by PF4 in absence of histones", "setting": "[2]; PF4 25 μg/ml", "result": "around 7 fold"}]}, {"substance": "protamine sulfate [PRT]", "values": [{"measurement": "shape of aPC generation versus protamine sulfate concentration", "setting": "[1]; FIG. 1C", "result": "bell-shape curve"}]}, {"substance": "2-O, 3-O desulfated heparin [ODSH]", "values": [{"measurement": "antithrombin activity, fold less", "setting": "antithrombin", "result": "~60", "unit": "fold"}, {"measurement": "effect of heparinoid on aPC generation after histones", "setting": "plasma aPC; [4]", "result": "suppressed detectable aPC generation"}, {"measurement": "aPC levels in mice pretreated with heparinoid", "setting": "plasma aPC; heparinoid 50 mg/kg, histones 75 mg/kg, WT mice, FIG. 8", "result": "aPC levels were raised"}, {"measurement": "effect of heparinoid on aPC generation with high doses of PF4 and histones", "setting": "[2]", "result": "enhanced aPC generation"}, {"measurement": "effect of heparinoid on aPC generation at low levels of histones", "setting": "[2]", "result": "inhibited aPC generation"}, {"measurement": "effect of heparinoid on aPC generation at higher levels of histones", "setting": "[2]", "result": "restored high levels of aPC generation"}, {"measurement": "severe prolongation of aPTT in presence of high (sub-lethal and lethal) concentrations of histones", "setting": "[3]", "result": "reversed"}, {"measurement": "dose required to markedly prolong the aPTT", "setting": "[3]; non-histone treated mice, FIG. 9A", "result": "the same as needed to reverse histone lethality"}, {"measurement": "effect of heparinoid on histone lethality", "setting": "mice", "result": "prevent these deaths"}]}]}
